Test results: PubChem BioAssay AID1259411 (Chemical Carcinogenesis Research Information System (CCRIS), 2018)
Calls of active or inactive are those of the source. How the calls were made is not given here.

Tested on: rodent carcinogenicity bioassays, tumor incidence
Assay: CCRIS carcinogenicity studies
Procedure, shortened: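 Archive of carcinogenicity, mutagenicity, tumor promotion and tumor inhibition results drawn from journals, NCI reports and other sources, expert-reviewed; covers 1985-2011 and is no longer updated.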

NC(=O)N(CCCO)N=O
carcinogen call (Species: RAT, Strain/Sex: F344/FEMALE, Route: GAVAGE, Dose: 0, 8 MG/ML (TOTAL DOSE 0; 0.9 MMOL) IN 2 ML ETHYL ACETATE AND CORN OIL (1:2) 2/WK FOR 40 WK (STUDY DURATION: LIFETIME), Dose: 0, 8 MG/ML (TOTAL DOSE 0; 0.9 MMOL) IN 2 ML ETHYL ACETATE AND CORN OIL (1:2) 2/WK FOR 40 WK (STUDY DURATION: LIFETIME), Tumor Site: Type of Lesion: THYROID: C-CELL TUMOR): active; positive
carcinogen call (Species: RAT, Strain/Sex: F344/FEMALE, Route: GAVAGE, Dose: 0, 8 MG/ML IN 0.2 ML ETHYL ACETATE AND CORN OIL 2/WK FOR 40 WK (STUDY DURATION: LIFESPAN), Tumor Site: Type of Lesion: THYROID: C-CELL TUMOR, UTERUS: TUMOR): active; positive
carcinogen call (Species: RAT, Strain/Sex: F344/FEMALE, Route: GAVAGE, Dose: 0, 16 MG/ML (TOTAL DOSE 0; 1.3 MMOL) IN 2 ML ETHYL ACETATE AND CORN OIL (1:2) 2/WK FOR 30 WK (STUDY DURATION: LIFETIME), Dose: 0, 16 MG/ML (TOTAL DOSE 0; 1.3 MMOL) IN 2 ML ETHYL ACETATE AND CORN OIL (1:2) 2/WK FOR 30 WK (STUDY DURATION: LIFETIME)): inactive; negative
carcinogen call (Species: RAT, Strain/Sex: F344/FEMALE, Route: GAVAGE, Dose: 0, 16 MG/ML IN 0.2 ML ETHYL ACETATE AND CORN OIL 2/WK FOR 30 WK (STUDY DURATION: LIFESPAN), Tumor Site: Type of Lesion: LIVER: TUMOR, FORESTOMACH: TUMOR, THYROID: C-CELL TUMOR, UTERUS: TUMOR, DUODENUM: TUMOR, Tumor Site: Type of Lesion: LIVER: TUMOR, FORESTOMACH: TUMOR, THYROID: C-CELL TUMOR, UTERUS: TUMOR, DUODENUM: TUMOR): active; positive
carcinogen call (Species: RAT, Strain/Sex: F344/MALE, Route: GAVAGE, Dose: 0, 8 MG/ML (TOTAL DOSE 0; 0.9 MMOL) IN 2 ML ETHYL ACETATE AND CORN OIL (1:2) 2/WK FOR 40 WK (STUDY DURATION: LIFETIME), Dose: 0, 8 MG/ML (TOTAL DOSE 0; 0.9 MMOL) IN 2 ML ETHYL ACETATE AND CORN OIL (1:2) 2/WK FOR 40 WK (STUDY DURATION: LIFETIME)): inactive; negative
carcinogen call (Species: RAT, Strain/Sex: F344/MALE, Route: GAVAGE, Dose: 0, 8 MG/ML IN 0.2 ML ETHYL ACETATE AND CORN OIL 2/WK FOR 40 WK (STUDY DURATION: LIFESPAN), Tumor Site: Type of Lesion: FORESTOMACH: TUMOR): active; positive
carcinogen call (Species: RAT, Strain/Sex: F344/MALE, Route: GAVAGE, Dose: 0, 16 MG/ML (TOTAL DOSE 0; 1.3 MMOL) IN 2 ML ETHYL ACETATE AND CORN OIL (1:2) 2/WK FOR 30 WK (STUDY DURATION: LIFETIME), Dose: 0, 16 MG/ML (TOTAL DOSE 0; 1.3 MMOL) IN 2 ML ETHYL ACETATE AND CORN OIL (1:2) 2/WK FOR 30 WK (STUDY DURATION: LIFETIME)): inactive; negative
carcinogen call (Species: RAT, Strain/Sex: F344/MALE, Route: GAVAGE, Dose: 0, 16 MG/ML IN 0.2 ML ETHYL ACETATE AND CORN OIL 2/WK FOR 30 WK (STUDY DURATION: LIFESPAN), Tumor Site: Type of Lesion: LUNG: TUMOR, GLANDULAR STOMACH: TUMOR, SKIN: TUMOR, Tumor Site: Type of Lesion: LUNG: TUMOR, GLANDULAR STOMACH: TUMOR, SKIN: TUMOR): active; positive

O=CNNC=O
carcinogen call (Species: MOUSE, Strain/Sex: SWISS/FEMALE, Route: ORAL, Dose: 0, 2% SOLUTION IN DRINKING WATER FROM AGE 6 WK FOR LIFE FOR AN AVERAGE DAILY INTAKE OF 0, 144 MG, Dose: 0, 2% SOLUTION IN DRINKING WATER FROM AGE 6 WK FOR LIFE FOR AN AVERAGE DAILY INTAKE OF 0, 144 MG, Tumor Site: Type of Lesion: LUNG: ADENOMA OR ADENOCARCINOMA): active; positive
carcinogen call (Species: MOUSE, Strain/Sex: SWISS/MALE, Route: ORAL, Dose: 0, 2% SOLUTION IN DRINKING WATER FROM AGE 6 WK FOR LIFE FOR AN AVERAGE DAILY INTAKE OF 0, 146 MG, Dose: 0, 2% SOLUTION IN DRINKING WATER FROM AGE 6 WK FOR LIFE FOR AN AVERAGE DAILY INTAKE OF 0, 146 MG, Tumor Site: Type of Lesion: LUNG: ADENOMA OR ADENOCARCINOMA): active; positive

O=[N+]([O-])c1ccc(N=Nc2c(O)ccc3ccccc23)c(Cl)c1
carcinogen call (Species: MOUSE, Strain/Sex: ICR/FEMALE, Route: DERMAL, Dose: 0, 1 MG IN 0.1 ML DISTILLED WATER 2/WK FOR A MEAN TOTAL DOSE OF 117.1 MG (STUDY DURATION: 18 MO)): inactive; negative
carcinogen call (Species: MOUSE, Strain/Sex: ICR/MALE, Route: DERMAL, Dose: 0, 1 MG IN 0.1 ML DISTILLED WATER 2/WK FOR A MEAN TOTAL DOSE OF 117.1 MG (STUDY DURATION: 18 MO)): inactive; negative

C[C@@H]1O[C@@H]1Cl
carcinogen call (Species: MOUSE, Strain/Sex: ICR/FEMALE, Route: DERMAL, Dose: 10 MG IN 0.1 ML ACETONE 3/WK FOR LIFE, Tumor Site: Type of Lesion: INTEGUMENTARY SYSTEM (SKIN): PAPILLOMA, SQUAMOUS CELL CARCINOMA): active; positive

CCN(C)N=O
carcinogen call (Species: HAMSTER, Strain/Sex: SYRIAN/MALE, Route: GAVAGE, Dose: 0, 1.8 MG/KG 1/WK FOR 23-30 WK (TOTAL DOSE: 0; 0.53 MMOL) (STUDY DURATION: LIFETIME), Dose: 0, 1.8 MG/KG 1/WK FOR 23-30 WK (TOTAL DOSE: 0; 0.53 MMOL) (STUDY DURATION: LIFETIME), Tumor Site: Type of Lesion: LIVER: HEPATOCELLULAR CARCINOMA, HEPATOCELLULAR ADENOMA, CHOLANGIOCARCINOMA, CHOLANGIOMA, HEMANGIOSARCOMA, NASAL MUCOSA:): active; positive
carcinogen call (Species: RAT, Strain/Sex: F344/FEMALE, Route: GAVAGE, Dose: 0, 4.6 MG/WK FOR A TOTAL DOSE OF 1.4 MMOL (STUDY DURATION: 40 WK), Tumor Site: Type of Lesion: LIVER: TUMOR, LUNG: TUMOR): active; positive
carcinogen call (Species: RAT, Strain/Sex: F344/FEMALE, Route: INTRAVESICULAR, Dose: 0, 2.3 MG IN 0.2 ML ETHANOL: DEIONIZED WATER (1:3) 2/WK FOR 30 WK (TOTAL DOSE 1.6 MMOL) (STUDY DURATION: LIFESPAN), Tumor Site: Type of Lesion: LIVER: HEMANGIOSARCOMA, LUNG: TUMOR, KIDNEY: TUMOR, Tumor Site: Type of Lesion: LIVER: HEMANGIOSARCOMA, LUNG: TUMOR, KIDNEY: TUMOR): active; positive
carcinogen call (Species: RAT, Strain/Sex: F344/MALE, Route: GAVAGE, Dose: 0, 4.6 MG/WK FOR A TOTAL DOSE OF 1.6 MMOL (STUDY DURATION: 60 WK), Tumor Site: Type of Lesion: LIVER: TUMOR, LUNG: TUMOR, NASAL MUCOSA: TUMOR, Tumor Site: Type of Lesion: LIVER: TUMOR, LUNG: TUMOR, NASAL MUCOSA: TUMOR): active; positive

COc1c(N2C[C@@H]3CCCN[C@@H]3C2)c(F)cc2c(=O)c(C(=O)O)cn(C3CC3)c12
carcinogen call (Species: RAT, Strain/Sex: WISTAR/MALE, FEMALE, Route: GAVAGE, Dose: 0, 500 MG/KG BW/D FOR 38 WK (STUDY DURATION: 38 WK)): inactive; negative

CN(CCC(=O)O)N=O
carcinogen call (Species: MOUSE, Strain/Sex: STRAIN-A/FEMALE, Route: INTRAPERITONEAL, Dose: 0, 200 UMOL MOUSE (TOTAL DOSE) ADMINISTERED IN 0.1 ML SALINE 3/WK (TOTAL 20 INJECTIONS) (STUDY DURATION: 37 WK), Tumor Site: Type of Lesion: LUNG: ADENOCARCINOMA, ADENOMA): active; positive

Cc1cc(Cl)ccc1N
carcinogen call (Species: MOUSE, Strain/Sex: B6C3F1/FEMALE, Route: ORAL, Dose: 0, 1250, 5000 PPM IN DIET, Dose: 0, 1250, 5000 PPM IN DIET, Tumor Site: Type of Lesion: BLOOD VESSELS: HEMANGIOMA OR HEMANGIOSARCOMA): active; positive
carcinogen call (Species: MOUSE, Strain/Sex: B6C3F1/MALE, Route: ORAL, Dose: 0, 3750, 15000 PPM IN DIET, Dose: 0, 3750, 15000 PPM IN DIET, Tumor Site: Type of Lesion: BLOOD VESSELS: HEMANGIOMA OR HEMANGIOSARCOMA): active; positive
carcinogen call (Species: RAT, Strain/Sex: F344/FEMALE, Route: ORAL, Dose: 0, 1250, 5000 PPM IN DIET, Dose: 0, 1250, 5000 PPM IN DIET): inactive; negative
carcinogen call (Species: RAT, Strain/Sex: F344/MALE, Route: ORAL, Dose: 0, 1250, 5000 PPM IN DIET, Dose: 0, 1250, 5000 PPM IN DIET): inactive; negative

O=c1ccc2ccc3occc3c2o1
carcinogen call (Species: MOUSE, Strain/Sex: C3H/HEN/FEMALE, Route: DERMAL, Dose: 215 UG IN 70% ETHANOL 3/WK FOR 48 WK (STUDY DURATION: 68 WK)): inactive; negative
